Measured values: PubChem BioAssay (NCI)
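Compound exposure: 48 hours, 5 concentrations, 96-well plates. GI50 = concentration required for 50% inhibition of growth. TGI: concentration producing complete growth inhibition.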

Columns and labels:
Assay in all cases: growth of human tumour cells (NCI), 48 h
[1] = test system: SF-295 CNS
[2] = test system: NCI-H522 lung
[3] = test system: NCI-H23 lung
[4] = test system: SK-OV-3 ovarian
[5] = test system: BT-549 breast
[6] = test system: LOX IMVI melanoma
[7] = test system: NCI-H226 lung
[8] = test system: EKVX NSCLC
[9] = test system: DU-145 prostate
[10] = test system: SF-268 CNS

| SMILES | GI50 [1] | TGI [1] | GI50 [2] | TGI [2] | GI50 [3] | TGI [3] | GI50 [4] | TGI [4] | GI50 [5] | TGI [5] | GI50 [6] | TGI [6] | GI50 [7] | TGI [7] | GI50 [8] | TGI [8] | GI50 [9] | TGI [9] | GI50 [10] | TGI [10] |
| --- | --- | --- | --- | --- | --- | --- | --- | --- | --- | --- | --- | --- | --- | --- | --- | --- | --- | --- | --- | --- |
| CC1(C)N=C(N)N=C(N)N1c1ccc(OCCCNC(=O)Nc2ccc(S(=O)(=O)F)cc2)c(Cl)c1 | 0.504 µM | > 100 µM | 0.79 µM | > 100 µM | 0.488 µM | > 100 µM | 8.83 µM | > 100 µM | 11.5 µM | > 100 µM | 0.12 µM | > 100 µM | 11.2 µM | > 100 µM | 0.874 µM | > 100 µM | 0.277 µM | > 100 µM | 0.199 µM | > 100 µM |
| COc1cccc2c1nc(C(F)F)n2-c1nc(-c2ccc(NS(=O)(=O)CCN(C)C)cc2)nc(N2CCOCC2)n1 | 0.0875 µM | 1.44 µM | 0.081 µM | 1.26 µM | 0.206 µM | 23.3 µM | 0.0396 µM | 0.214 µM | 0.314 µM | 16 µM | 0.176 µM | 2.13 µM | 0.191 µM | 6.43 µM | 0.0712 µM | 1.7 µM | 0.162 µM | 11.7 µM | 0.157 µM | 13.3 µM |
| Cc1c(Cl)cccc1C(=O)Nc1nc2c(s1)CN(C(=O)Nc1cccc(C(F)(F)F)c1)CC2 | 0.125 µM | > 41.6 µM | 0.109 µM | – | 0.234 µM | > 50 µM | 0.215 µM | > 50 µM | 0.547 µM | > 50 µM | 0.226 µM | 11 µM | 0.213 µM | 7.65 µM | 0.346 µM | > 50 µM | 0.204 µM | > 50 µM | 0.467 µM | > 50 µM |
| ClC1=C(Cl)C(Cl)(C2(Cl)C(Cl)=C(Cl)C(Cl)=C2Cl)C(Cl)=C1Cl | 2.05 µM | 4.14 µM | 0.16 µM | 0.341 µM | 0.865 µM | 3.1 µM | 2.26 µM | 4.54 µM | 1.68 µM | 3.67 µM | 0.206 µM | 0.487 µM | 0.296 µM | 2.74 µM | 1.52 µM | 3.88 µM | 0.633 µM | 1.99 µM | 1.28 µM | 4.05 µM |
| CN(C)CCNC(=O)c1cc2c3cc(Cl)ccc3[nH]c2c2ncccc12 | 22.8 µM | 59.6 µM | 2.26 µM | 7.11 µM | 6.31 µM | 23.4 µM | 6.89 µM | 24.4 µM | 2.26 µM | 7.98 µM | 1.51 µM | 2.92 µM | 4.04 µM | 16.7 µM | 2.8 µM | 12.7 µM | 3.4 µM | 12.7 µM | 2.81 µM | 11.8 µM |
| COC(=O)[C@@H](C)C[C@H](Cc1ccccc1)NC(=O)c1nc([C@@H](C[C@H](C(C)C)N(C)C(=O)[C@@H](NC(=O)[C@H]2C[C@H](O)CCN2C)C(C)C)OC(C)=O)sc1C(C)C | 0.0164 µM | > 11.1 µM | 0.00186 µM | – | 0.0232 µM | > 11.1 µM | 0.00646 µM | > 11.1 µM | 0.00416 µM | 0.131 µM | 0.00437 µM | > 5.38 µM | 0.0257 µM | – | 0.161 µM | > 11.1 µM | 0.00395 µM | – | 0.00957 µM | > 11.1 µM |
| Cc1c2cnccc2c(C)c2c1c1ccccc1n2CCOC(=O)c1ccccc1 | – | 33 µM | – | 31.1 µM | – | 54.7 µM | – | 25.5 µM | – | > 100 µM | – | 33.7 µM | – | 70 µM | – | 47.9 µM | – | > 100 µM | – | 79.5 µM |
| CC(C)=CC[C@@H]1CC2(CC=C(C)C)C(=O)C(OC3(C(=O)c4ccccc4)C(=O)C4(CC=C(C)C)C[C@@H](CC=C(C)C)C(C)(C)C(CC=C(C)C)(C4=O)C3=O)(C(=O)c3ccccc3)C(=O)C(CC=C(C)C)(C2=O)C1(C)C (stereo partly specified) | 1.01 µM | 2.5 µM | 1.07 µM | 3.72 µM | 1.36 µM | 4.48 µM | 1.41 µM | 4 µM | 0.884 µM | 1.89 µM | 1.23 µM | 3.24 µM | 1.34 µM | 3.9 µM | 1.2 µM | 4.2 µM | 1.35 µM | 3.88 µM | 1.13 µM | 2.89 µM |
| Sc1cccc2cccnc12 | 0.645 µM | 12.8 µM | 2.13 µM | 5.66 µM | 1.91 µM | 16.8 µM | 3.04 µM | 13.8 µM | 1.46 µM | 12.4 µM | 0.57 µM | 11.1 µM | 1.61 µM | 8.83 µM | 1.31 µM | 12.9 µM | 0.626 µM | 15.9 µM | 1.35 µM | 13.5 µM |
| N#CC1=C(N)Oc2c(sc3c(Br)cccc23)C1c1ccc([N+](=O)[O-])cc1 (stereo unspecified) | 0.0417 µM | 11.1 µM | 0.0216 µM | 0.616 µM | 0.131 µM | 13.2 µM | 0.128 µM | 15.1 µM | 0.319 µM | 5.31 µM | 0.127 µM | 4.31 µM | 0.368 µM | 15.6 µM | 0.462 µM | 19.4 µM | 0.14 µM | 9.26 µM | 0.547 µM | 10.7 µM |
| O=c1c2ccccc2nc(-c2cccc([N+](=O)[O-])c2)n1O | – | > 100 µM | – | > 88.8 µM | – | > 100 µM | – | > 100 µM | – | 80.8 µM | – | > 100 µM | – | > 100 µM | – | > 100 µM | – | > 100 µM | – | > 100 µM |
| COc1cc(/C=C2\CC3C4CC=C5CC(OC(C)=O)CC[C@]5(C)C4CC[C@]3(C)C2=O)ccc1OCCN1CCCC1 (stereo partly specified) | 4.8 µM | 11.8 µM | 10.5 µM | 26.6 µM | 14.2 µM | 27.7 µM | 23.7 µM | > 63.9 µM | 14.7 µM | 38.3 µM | 0.248 µM | 2.55 µM | 14.1 µM | 30.9 µM | 18 µM | 35.4 µM | 13.6 µM | 26.6 µM | 8.53 µM | 26.7 µM |
| O=C(N/N=C/c1ccc(Cl)cc1)c1ccc(NC(=O)c2ccccn2)cc1 | 28.7 µM | > 100 µM | 31.5 µM | > 100 µM | 26.3 µM | > 100 µM | 31 µM | > 100 µM | 25 µM | 99.6 µM | 56.1 µM | > 100 µM | 24.5 µM | > 100 µM | 48.7 µM | > 100 µM | 27.2 µM | > 100 µM | 16.1 µM | 95 µM |
